{"source": "patent US10335400B2", "about": "“Treatment of tauopathies with mGluR5 antagonists” (priority 2014, dated 2019)", "key": {"[1]": {"molecular_target": "bovine purified PP2A holoenzyme (Bos taurus, UniProt P67774)", "sequence (Q32PI5 whole entry)": "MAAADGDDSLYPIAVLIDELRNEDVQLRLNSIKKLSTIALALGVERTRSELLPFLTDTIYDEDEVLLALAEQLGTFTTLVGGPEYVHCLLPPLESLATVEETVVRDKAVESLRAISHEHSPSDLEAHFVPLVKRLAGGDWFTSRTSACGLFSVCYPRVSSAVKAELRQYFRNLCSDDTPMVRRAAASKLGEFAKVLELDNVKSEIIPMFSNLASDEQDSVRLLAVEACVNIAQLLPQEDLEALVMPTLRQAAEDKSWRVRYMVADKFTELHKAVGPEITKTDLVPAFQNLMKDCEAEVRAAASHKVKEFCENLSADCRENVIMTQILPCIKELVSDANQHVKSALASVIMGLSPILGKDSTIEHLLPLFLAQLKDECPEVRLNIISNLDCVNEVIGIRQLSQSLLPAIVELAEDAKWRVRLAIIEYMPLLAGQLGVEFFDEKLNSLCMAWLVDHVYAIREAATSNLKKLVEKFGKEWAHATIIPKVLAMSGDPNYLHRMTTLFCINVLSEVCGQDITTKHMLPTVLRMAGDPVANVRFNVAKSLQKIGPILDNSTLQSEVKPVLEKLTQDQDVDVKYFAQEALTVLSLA", "sequence (P67774 whole entry)": "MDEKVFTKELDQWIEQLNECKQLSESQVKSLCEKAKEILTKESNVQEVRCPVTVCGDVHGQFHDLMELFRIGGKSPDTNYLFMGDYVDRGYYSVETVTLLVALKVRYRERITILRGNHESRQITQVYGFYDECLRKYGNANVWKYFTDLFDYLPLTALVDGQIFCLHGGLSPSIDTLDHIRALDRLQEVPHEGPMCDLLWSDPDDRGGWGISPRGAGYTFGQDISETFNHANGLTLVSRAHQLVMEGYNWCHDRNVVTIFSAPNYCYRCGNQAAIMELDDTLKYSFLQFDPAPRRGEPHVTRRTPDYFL", "assay": "In vitro PP2A activity assay with purified PP2A holoenzyme", "format": "biochemical", "conditions": "purified PP2A holoenzyme in the presence or absence of BMAA", "excerpt": "No effect of BMAA on PP2A activity was found."}, "mGluR5-PP2A complex": {"molecular_target": "T1, mGluR5-PP2A complex (Mus musculus, UniProt Q3UVX5)", "T1 construct": "endogenous in cells; host or cells: mouse primary hippocampal neuronal cultures", "T1 sequence (Q3UVX5 19-1203, one chain of several)": "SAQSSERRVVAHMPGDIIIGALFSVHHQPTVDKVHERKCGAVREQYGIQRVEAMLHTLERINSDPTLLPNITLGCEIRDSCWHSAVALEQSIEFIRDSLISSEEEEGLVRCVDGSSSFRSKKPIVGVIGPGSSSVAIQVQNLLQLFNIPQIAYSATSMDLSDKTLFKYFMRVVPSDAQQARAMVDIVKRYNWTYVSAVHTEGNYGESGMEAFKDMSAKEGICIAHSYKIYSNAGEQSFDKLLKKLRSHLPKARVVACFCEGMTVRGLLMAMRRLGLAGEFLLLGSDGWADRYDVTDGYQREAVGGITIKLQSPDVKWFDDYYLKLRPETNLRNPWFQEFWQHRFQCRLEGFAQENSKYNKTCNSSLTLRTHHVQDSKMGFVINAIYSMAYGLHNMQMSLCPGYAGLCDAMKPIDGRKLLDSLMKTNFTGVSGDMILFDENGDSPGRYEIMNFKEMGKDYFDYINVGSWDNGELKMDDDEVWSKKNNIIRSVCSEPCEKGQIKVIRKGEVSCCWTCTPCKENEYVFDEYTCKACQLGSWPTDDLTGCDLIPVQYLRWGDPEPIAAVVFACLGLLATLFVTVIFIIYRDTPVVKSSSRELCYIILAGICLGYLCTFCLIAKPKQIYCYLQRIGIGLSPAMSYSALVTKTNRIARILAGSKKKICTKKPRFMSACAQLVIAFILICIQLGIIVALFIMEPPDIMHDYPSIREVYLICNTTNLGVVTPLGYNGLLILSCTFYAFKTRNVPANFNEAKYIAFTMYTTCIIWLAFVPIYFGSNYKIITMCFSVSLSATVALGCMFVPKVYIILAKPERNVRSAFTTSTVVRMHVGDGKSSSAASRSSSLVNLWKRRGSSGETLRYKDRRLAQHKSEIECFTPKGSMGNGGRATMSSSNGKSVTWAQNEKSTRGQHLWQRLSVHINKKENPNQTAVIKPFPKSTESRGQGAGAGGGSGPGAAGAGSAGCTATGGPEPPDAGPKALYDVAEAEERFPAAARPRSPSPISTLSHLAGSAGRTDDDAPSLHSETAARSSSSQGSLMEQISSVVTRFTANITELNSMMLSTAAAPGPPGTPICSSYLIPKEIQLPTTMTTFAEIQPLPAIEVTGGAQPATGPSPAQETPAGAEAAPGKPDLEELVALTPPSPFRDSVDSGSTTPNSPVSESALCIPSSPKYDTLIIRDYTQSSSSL", "assay": "Coimmunoprecipitation of PP2Ac with mGluR5 in primary neurons", "format": "cell-based", "conditions": "primary neuronal cultures, 1 mM BMAA", "description": "Mouse hippocampal cell proteins were prepared with low-stringency lysis buffer [50 mM Hepes (pH 7.4), 10% (vol/vol) glycerol, 1.5 mM MgCl2, 5 mM NaF, 1 mM Na3VO4, 1 mM EDTA, 1 mM EGTA, 1% Nonidet P-40, 5 mM AEBSF, 10 μg/mL aprotinin, leupeptin, pepstatin] and were homogenized by several freeze-thaw cycles followed by water bath sonication. The homogenate was centrifuged at 14,000×g at 4° C. for 15 min. For transfection experiments with vector (DsRed) and with DsRed-PP2A catalytic subunit (PP2Ac), primary neurons were processed in a similar manner. The supernatants then were used for immunoprecipitation with mouse anti-PP2A (1D6; Millipore) followed by incubation with protein G-Sepharose (Thermo Scientific). The Western blots of immunoprecipitates were probed with rabbit anti-mGluR5 (Millipore) and rabbit anti-PP2Ac [R123d] (FIG. 55)."}, "PP2A": {"test_system": "PP2A", "assay": "PP2A activity (phosphatase ELISA) in rat brain slices", "format": "cell-based", "conditions": "brain slices incubated with BMAA 1 mM for 2 h in artificial cerebrospinal fluid", "description": "(§1) Male Wistar rats (Charles River Laboratories), 2-3 months old, were anesthetized by i.p. injection with 50 mg/kg Nembutal. The animals were decapitated when deeply anesthetized. The brains were removed immediately and cooled in ice-cold (4° C.) oxygenated artificial cerebrospinal fluid (aCSF) consisting of 126 mM NaCl, 3.5 mM KCl, 1.2 mM NaH2PO4, 1.3 mM MgCl2, 2 mM CaCl2, 11 mM D(+) glucose, and 25 mM NaHCO3 (pH 7.4) for 7-8 min. Each brain then was divided sagittally, and 400-μm-thick coronal slices were made with a Camden Vibraslicer (WP, Inc.). The slices were transferred into a chamber containing the oxygenated aCSF and were incubated at 33° C. for 2 h in the presence or absence of 1 mM, β-N ? methylamino-L-alanine (BMAA) dissolved in 10 mM NaHCO3 (Sigma). The oxygenation of the aCSF was carried out by bubbling the solution with a mixture of 95% O2 and 5% CO2 during the entire procedure. At the end of incubation, the brain slices were homogenized with homogenizing buffer [50 mM Tris·HCl (pH 7.4), 8.5% (wt/vol) sucrose, 2 mM EDTA, 2 mM EGTA, 10 mM (3-mercaptoethanol, 5 mM benzamidine, 0.5 mM 4-(2-Aminoethyl) benzenesulfonyl fluoride hydrochloride (AEBSF), 4 μg/mL pepstatin A, and 10 μg/mL each of aprotinin and leupepin] at a ratio of 9.0 mL buffer/1.0 g tissue slices. The homogenates were divided into two parts. One part was centrifuged at 16,000×g for 10 min, and the resulting supernatant was used to assay protein phosphatase 2A (PP2A) activity. Into the other half, an equal volume of phosphatase-inhibitor mixture (20 mM 3-glycerophosphate, 2 mM Na3VO4, and 100 mM NaF) was added immediately, and the samples were used for Western blots."}, "PP2Ac": {"test_system": "PP2Ac", "assay": "PP2A regulatory factors (pTyr307-PP2Ac, demethylated Leu309, I1PP2A, I2PP2A) by Western blots in rat brain slices", "format": "cell-based", "conditions": "BMAA-treated rat brain slices (1 mM, 2 h)", "description": "Male Wistar rats (Charles River Laboratories), 2-3 months old, were anesthetized by i.p. injection with 50 mg/kg Nembutal. The animals were decapitated when deeply anesthetized. The brains were removed immediately and cooled in ice-cold (4° C.) oxygenated artificial cerebrospinal fluid (aCSF) consisting of 126 mM NaCl, 3.5 mM KCl, 1.2 mM NaH2PO4, 1.3 mM MgCl2, 2 mM CaCl2, 11 mM D(+) glucose, and 25 mM NaHCO3 (pH 7.4) for 7-8 min. Each brain then was divided sagittally, and 400-μm-thick coronal slices were made with a Camden Vibraslicer (WP, Inc.). The slices were transferred into a chamber containing the oxygenated aCSF and were incubated at 33° C. for 2 h in the presence or absence of 1 mM, β-N ? methylamino-L-alanine (BMAA) dissolved in 10 mM NaHCO3 (Sigma). The oxygenation of the aCSF was carried out by bubbling the solution with a mixture of 95% O2 and 5% CO2 during the entire procedure. […]\nProtein was fractionated by 10% SDS/PAGE, transferred to PVDF membrane, and then blocked with 5% skim milk for 1 h at room temperature. […] The protein bands were detected with the enhanced chemiluminescence reagents (Thermo Scientific). Band intensity was measured by Multi-Gauge V3 software (Fuji Photo Film)."}, "tau [2]": {"test_system": "tau", "assay": "Tau phosphorylation (Western blots) in metabolically active rat brain slices", "format": "cell-based", "conditions": "1 mM BMAA, 2-3 h, adult Wistar rat brain slices", "description": "as §1\n(§2) Protein was fractionated by 10% SDS/PAGE, transferred to PVDF membrane, and then blocked with 5% skim milk for 1 h at room temperature. The membrane was probed with anti-IPP2A (5G6, 1:1, 500) (7), anti-I2P2A (10E7, 1:1, 600) (7), anti-tau ˜92e; 1:5,000) (8), anti-tau (R134d; 1:5 000) (9), anti-tau pSer^262/^356 (12E8; 1:500) (10, anti-tau pSer^199, anti-tau pThr^205, anti-tau pThr^212, and pSer^396 (1:1,000) (Biosource), anti-GAPDH (1:2,000) (Santa Cruz Biotechnology), anti-PP2Ac (1:10 000) (BD Transduction Lab), anti pY^307-PP2A and anti-DML^309-PP2A (1:1,000) (Millipore), anti-GSK-3(α/β), anti-pS^9-GSK-3 β, anti-ERK1/2, anti-pT^202/Y^204-ERK1/2, anti-MEK1/2, anti-p9^17/221-MEK1/2, anti-CAMKII, anti-pT^286-CAMKII, anti-p70 S6 kinase, anti-pT^389-p70 S6 kinase, anti-SAPK/JNK, and anti-pT^183/Y^185-SAPK/JNK (1:1,000) (Cell Signaling Technology). The membrane then was incubated with HRP-conjugated secondary antibody (Jackson ImmunoResearch). The protein bands were detected with the enhanced chemiluminescence reagents (Thermo Scientific). Band intensity was measured by Multi-Gauge V3 software (Fuji Photo Film)."}, "tau [3]": {"test_system": "tau", "assay": "i.c.v. infusion of BMAA in neonatal rats: hyperphosphorylation of tau", "format": "in vivo, rat", "conditions": "i.c.v. BMAA 1.3 μmol", "description": "Wistar rats were bred and maintained under standard environmental conditions (12-h light/dark cycles, 22° C.) and were allowed free access to food and water. The animal experiments were carried out in strict compliance with protocols approved by the Animal Welfare Committee of New York State Institute for Basic Research in Developmental Disabilities. On postnatal d 2 (PND2), pups were individually cryo-anesthetized on ice, and 2 μL of 1.3 μmol BMAA in PBS was injected into lateral ventricle using a 10-μL Hamilton syringe (Hamilton Syringe Co.). Control animals were injected with PBS in an identical manner. After infusion of BMAA, rats were killed within 1, 24, 48, 72, or 96 h, and the brains were used for Western blots and PP2A activity assays.\nas §2"}}}
{"smiles": "CNC[C@H](N)C(=O)O", "note": "[BMAA, β-N-methylamino-L-alanine]", "values": [{"measurement": "direct effect on PP2A activity", "setting": "[1]", "result": "No effect"}, {"measurement": "association of PP2Ac with mGluR5", "setting": "mGluR5-PP2A complex", "result": "led to the dissociation"}, {"measurement": "PP2A activity", "setting": "PP2A", "result": "significant inhibition"}, {"measurement": "increase in phosphorylation of PP2Ac at Tyr307", "setting": "PP2Ac", "result": 3.7, "unit": "fold"}, {"measurement": "increase in phosphorylation of tau at Ser199", "setting": "tau [2]", "result": 2.6, "unit": "fold"}, {"measurement": "increase in phosphorylation of tau at Ser262/356", "setting": "tau [2]", "result": 3.4, "unit": "fold"}, {"measurement": "increase in phosphorylation of tau at Thr205", "setting": "tau [2]", "result": 1.8, "unit": "fold"}, {"measurement": "increase in phosphorylation of tau at Thr212", "setting": "tau [2]", "result": 3.7, "unit": "fold"}, {"measurement": "phosphorylation of tau at Ser396", "setting": "tau [2]", "result": "not any significant change"}, {"measurement": "time of peak hyperphosphorylation of tau at Ser262/356", "setting": "tau [3]", "result": "24 to 48", "unit": "h"}, {"measurement": "time of peak hyperphosphorylation of tau at Thr212", "setting": "tau [3]", "result": "24 to 48", "unit": "h"}, {"measurement": "time of peak phosphorylation of tau at Ser199", "setting": "tau [3]", "result": "72 to 96", "unit": "h"}, {"measurement": "time of peak phosphorylation of tau at Ser396", "setting": "tau [3]", "result": "72 to 96", "unit": "h"}, {"measurement": "time of peak phosphorylation of tau at Thr205", "setting": "tau [3]", "result": "72 to 96", "unit": "h"}]}
